Data on 1 compound can be found in patent US20100125085A1, “PYRIDOINDOLE MODULATORS OF NMDA RECEPTOR AND ACETYLCHOLINESTERASE” (AUSPEX PHARMACEUTICALS, INC., priority 2008, published 2010).

A short description of series [1]: sites of metabolism of dimebolin in humans. The class given is in vivo. To be noted: discoveries made in our laboratory and literature.
For series [2] the following is noted: cited from earlier work.

Turning to `Cc1ccc2c(c1)c1c(n2CCc2ccc(C)nc2)CCN(C)C1` [dimebolin, 2,8-dimethyl-5-[2-(6-methyl-pyridin-3-yl)-ethyl]-2,3,4,5-tetrahydro-1H-pyrido[4,3-b]indole], in series [1], the sites of metabolism entry was “metabolized in humans at the pyridyl methyl group, the tolyl methyl group, the ethylene linker, and the N-methyl group”. Further, the common adverse events result in series [2] (>5% of patients and at least twice the incidence of placebo) is “dry mouth, depressed mood/depression, and hyperhidrosis”. Further, the “patients reporting at least 1 serious adverse effect” value in series [2] (double-blind study, dimebolin group) was 3%. In addition, the “patients reporting at least 1 adverse effect” value in series [2] (double-blind study, patients taking dimebolin) was 79%.
